Data set [1] relates to IL6/pSTAT1 pathway. In words: MDZ DDI study ex vivo IL6/pSTAT1 in CD4+ T-cells. The note with it: 150 mg q.d., Day 6, ex vivo stimulation of whole blood.
For data set [2], the system named is IL2/pSTAT5 pathway. In words: MDZ DDI study ex vivo IL2/pSTAT5 in CD4+ T-cells. The note with it: 150 mg q.d., Day 6, ex vivo stimulation of whole blood.
Data set [3] relates to IFN-α/pSTAT1 pathway. Description: MDZ DDI study ex vivo IFN-α/pSTAT1 in CD4+ T-cells. The note with it: 150 mg q.d., Day 6, ex vivo stimulation of whole blood.
The subject of data set [4] is IL6/pSTAT3 pathway. Description: MDZ DDI study ex vivo IL6/pSTAT3 in CD4+ T-cells. The note with it: 150 mg q.d., Day 6, ex vivo stimulation of whole blood.
The subject of data set [5] is IFN-α/pSTAT3 pathway. Description: MDZ DDI study ex vivo IFN-α/pSTAT3 in CD4+ T-cells. The note with it: 150 mg q.d., Day 6, ex vivo stimulation of whole blood.
For data set [6], the target named is CYP3A4 (Homo sapiens, UniProt P08684). Description: clinical. The note with it: in vivo. How it is done: On Days 1 and 7, single dose of 2 mg MDZ as commercially available liquid formulation, containing 2 mg/mL MDZ administered orally under fed conditions.
CYP3A4, sequence (P08684 whole entry): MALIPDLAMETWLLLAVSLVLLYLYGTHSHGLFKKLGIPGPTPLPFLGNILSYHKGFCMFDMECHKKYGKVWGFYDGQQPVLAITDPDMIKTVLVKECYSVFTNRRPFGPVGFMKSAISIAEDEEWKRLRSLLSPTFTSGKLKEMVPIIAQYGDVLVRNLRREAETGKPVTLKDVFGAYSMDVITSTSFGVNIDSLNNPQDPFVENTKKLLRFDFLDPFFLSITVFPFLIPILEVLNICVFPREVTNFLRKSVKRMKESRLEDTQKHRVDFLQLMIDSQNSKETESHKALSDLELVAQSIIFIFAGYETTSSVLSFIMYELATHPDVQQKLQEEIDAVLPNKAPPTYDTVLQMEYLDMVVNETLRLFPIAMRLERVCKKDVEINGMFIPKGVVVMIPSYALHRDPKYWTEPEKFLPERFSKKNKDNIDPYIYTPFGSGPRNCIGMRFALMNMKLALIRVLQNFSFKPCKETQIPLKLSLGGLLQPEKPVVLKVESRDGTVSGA

We go through 2 molecules from patent US20240325404A1, “TREATMENT OF INFLAMMATORY DISEASES” (Galapagos NV, priority 2021, published 2024).

“Also recorded” adds a separate entry of the source.

Regarding `Cc1cc(C#N)ncc1Oc1cc(Nc2ccc(N3CCOCC3)nn2)c2ncn(C)c2n1` [Compound 1, 4-methyl-5-[3-methyl-7-[(6-morpholin-4-ylpyridazin-3-yl)amino]imidazo[4,5-b]pyridin-5-yl]oxypyridine-2-carbonitrile], the “effect on IL6/pSTAT1 pathway” value in data set [1] was “concentration-dependent inhibition”. For the same molecule, the “effect on IL2/pSTAT5 pathway” value in data set [2] was “Day 1 and Day 6 values were similar; also recorded: no inhibition and no concentration-dependent effect”. Moreover, the “effect on IFN-α/pSTAT1 pathway” value in data set [3] is recorded as “concentration-dependent inhibition”. For the same molecule, the “effect on IL6/pSTAT3 pathway” value in data set [4] is “Day 1 and Day 6 values were similar; also recorded: no inhibition and no concentration-dependent effect”. For the same molecule, in data set [5], the “effect on IFN-α/pSTAT3 pathway” value is recorded as “concentration-dependent inhibition”.

`Cc1ncc2n1-c1ccc(Cl)cc1C(c1ccccc1F)=NC2` [MDZ, midazolam]: in data set [6], the total exposure AUC(0-inf) amounted to 27.9 ng·h/mL, the highest concentration (Cmax) stood at 6.24 ng/mL and the “MDZ AUC0-∞ LS Geometric Mean Ratio (90% CI)” value is 121 (109; 133) %. In addition, in data set [6] (po, 2 mg), the AUC(0-inf) came out at 23.5 ng·h/mL and the Cmax was 5.95 ng/mL.
